{"source": "ChEMBL document CHEMBL1153659", "about": "“Target directed enediyne prodrugs: hER and AhR degradation by a synthetic oxo-enediyne” (1996)", "tested_on": "T47D", "test": "Compound was tested for growth inhibition against T-47D-Y cells at 10e-4 M", "assay_type": "functional", "conditions": "Homo sapiens", "data": [{"smiles": "C1#CCO[C@H]2CCCC[C@@H]2C#C/C=C\\1", "values": [{"measurement": "inhibition at 100 µM", "value": 83, "unit": "%"}]}]}
